Test system: 282377-053-R-J1-PDC complex spheroid viability
Experiment: Anticancer human tumor 282377-053-R-J1-PDC patient-derived colon adenocarcinoma cell line growth inhibition [RAS]
Details: for IC50: curve of first compound; for viability, T/C: stronger effect = lower value
Outline: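 Agents were tested in combination matrices in half-log decrements from a top concentration at or near clinical Cmax (10 microM if undetermined). Targets were multi-cell spheroids of tumour lines plus HUVEC and MSC stromal cells.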
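Note: spheroids exposed to agents for seven days before readout.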
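Throughout, for viability, T/C: luminescence viability as percent of DMSO vehicle control wells.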

Question: Which results are given for `CCc1c2c(nc3ccc(O)cc13)-c1cc3c(c(=O)n1C2)COC(=O)[C@]3(O)CC` + CCn1c(-c2cc(N3CCN(C)CC3)cnc2C(C)OC)c2c3cc(ccc31)-c1csc(n1)CC(NC(=O)C1CC1C)C(=O)N1CCCC(N1)C(=O)OCC(C)(C)C2?
Answer: IC50 (second compound 0.000949 µM): > 300 nM; IC50 (second compound 0.003 µM): > 300 nM; IC50 (second compound 0.00949 µM): > 300 nM; IC50 (second compound 0.03 µM): > 300 nM; IC50 (second compound 0.0949 µM): > 300 nM; IC50 (second compound 0.3 µM): > 300 nM; viability, T/C (second compound 0.000949 µM, first compound 0.000949 µM): 130%; viability, T/C (second compound 0.000949 µM, first compound 0.003 µM): 112%; viability, T/C (second compound 0.000949 µM, first compound 0.00949 µM): 153%; viability, T/C (second compound 0.000949 µM, first compound 0.03 µM): 124%; viability, T/C (second compound 0.000949 µM, first compound 0.0949 µM): 86.5%; viability, T/C (second compound 0.000949 µM, first compound 0.3 µM): 81%; viability, T/C (second compound 0.003 µM, first compound 0.000949 µM): 109%; viability, T/C (second compound 0.003 µM, first compound 0.003 µM): 114%; viability, T/C (second compound 0.003 µM, first compound 0.00949 µM): 151%; viability, T/C (second compound 0.003 µM, first compound 0.03 µM): 107%; viability, T/C (second compound 0.003 µM, first compound 0.0949 µM): 119%; viability, T/C (second compound 0.003 µM, first compound 0.3 µM): 66.2%; viability, T/C (second compound 0.00949 µM, first compound 0.000949 µM): 107%; viability, T/C (second compound 0.00949 µM, first compound 0.003 µM): 112%; viability, T/C (second compound 0.00949 µM, first compound 0.00949 µM): 136%; viability, T/C (second compound 0.00949 µM, first compound 0.03 µM): 105%; viability, T/C (second compound 0.00949 µM, first compound 0.0949 µM): 112%; viability, T/C (second compound 0.00949 µM, first compound 0.3 µM): 77.2%; viability, T/C (second compound 0.03 µM, first compound 0.000949 µM): 116%; viability, T/C (second compound 0.03 µM, first compound 0.003 µM): 102%; viability, T/C (second compound 0.03 µM, first compound 0.00949 µM): 139%; viability, T/C (second compound 0.03 µM, first compound 0.03 µM): 122%; viability, T/C (second compound 0.03 µM, first compound 0.0949 µM): 118%; viability, T/C (second compound 0.03 µM, first compound 0.3 µM): 65.4%; viability, T/C (second compound 0.0949 µM, first compound 0.000949 µM): 115%; viability, T/C (second compound 0.0949 µM, first compound 0.003 µM): 122%; viability, T/C (second compound 0.0949 µM, first compound 0.00949 µM): 162%; viability, T/C (second compound 0.0949 µM, first compound 0.03 µM): 131%; viability, T/C (second compound 0.0949 µM, first compound 0.0949 µM): 116%; viability, T/C (second compound 0.0949 µM, first compound 0.3 µM): 69.4%; viability, T/C (second compound 0.3 µM, first compound 0.000949 µM): 131%; viability, T/C (second compound 0.3 µM, first compound 0.003 µM): 131%; viability, T/C (second compound 0.3 µM, first compound 0.00949 µM): 161%; viability, T/C (second compound 0.3 µM, first compound 0.03 µM): 104%; viability, T/C (second compound 0.3 µM, first compound 0.0949 µM): 109%; viability, T/C (second compound 0.3 µM, first compound 0.3 µM): 77.9%

Question: What does the source list for `C=CC(=O)N1CCN(c2nc(OCC3CCCN3C)nc3c(F)c(-c4nc(N)cc(C)c4C(F)(F)F)c(Cl)cc23)C(C)C1` (stereo unspecified) + C#Cc1c(F)ccc2cc(O)cc(-c3ncc4c(N5CC6CCC(C5)N6)nc(OCC56CCCN5CC(F)C6)nc4c3F)c12?
Answer: IC50 (second compound 0.0316 µM): > 1000 nM; IC50 (second compound 0.1 µM): > 1000 nM; IC50 (second compound 0.316 µM): > 1000 nM; IC50 (second compound 1 µM): > 1000 nM; IC50 (second compound 3.16 µM): > 1000 nM; IC50 (second compound 10 µM): > 1000 nM; viability, T/C (second compound 0.0316 µM, first compound 0.00316 µM): 111%; viability, T/C (second compound 0.0316 µM, first compound 0.01 µM): 128%; viability, T/C (second compound 0.0316 µM, first compound 0.0316 µM): 132%; viability, T/C (second compound 0.0316 µM, first compound 0.1 µM): 108%; viability, T/C (second compound 0.0316 µM, first compound 0.316 µM): 107%; viability, T/C (second compound 0.0316 µM, first compound 1 µM): 123%; viability, T/C (second compound 0.1 µM, first compound 0.00316 µM): 98.7%; viability, T/C (second compound 0.1 µM, first compound 0.01 µM): 96.9%; viability, T/C (second compound 0.1 µM, first compound 0.0316 µM): 97.2%; viability, T/C (second compound 0.1 µM, first compound 0.1 µM): 96.4%; viability, T/C (second compound 0.1 µM, first compound 0.316 µM): 91.6%; viability, T/C (second compound 0.1 µM, first compound 1 µM): 84.4%; viability, T/C (second compound 0.316 µM, first compound 0.00316 µM): 106%; viability, T/C (second compound 0.316 µM, first compound 0.01 µM): 105%; viability, T/C (second compound 0.316 µM, first compound 0.0316 µM): 91%; viability, T/C (second compound 0.316 µM, first compound 0.1 µM): 99.5%; viability, T/C (second compound 0.316 µM, first compound 0.316 µM): 96.7%; viability, T/C (second compound 0.316 µM, first compound 1 µM): 104%; viability, T/C (second compound 1 µM, first compound 0.00316 µM): 99.6%; viability, T/C (second compound 1 µM, first compound 0.01 µM): 90.9%; viability, T/C (second compound 1 µM, first compound 0.0316 µM): 92.8%; viability, T/C (second compound 1 µM, first compound 0.1 µM): 90.6%; viability, T/C (second compound 1 µM, first compound 0.316 µM): 118%; viability, T/C (second compound 1 µM, first compound 1 µM): 97.5%; viability, T/C (second compound 3.16 µM, first compound 0.00316 µM): 91.1%; viability, T/C (second compound 3.16 µM, first compound 0.01 µM): 109%; viability, T/C (second compound 3.16 µM, first compound 0.0316 µM): 107%; viability, T/C (second compound 3.16 µM, first compound 0.1 µM): 98.6%; viability, T/C (second compound 3.16 µM, first compound 0.316 µM): 108%; viability, T/C (second compound 3.16 µM, first compound 1 µM): 123%; viability, T/C (second compound 10 µM, first compound 0.00316 µM): 100%; viability, T/C (second compound 10 µM, first compound 0.01 µM): 112%; viability, T/C (second compound 10 µM, first compound 0.0316 µM): 116%; viability, T/C (second compound 10 µM, first compound 0.1 µM): 102%; viability, T/C (second compound 10 µM, first compound 0.316 µM): 85.1%; viability, T/C (second compound 10 µM, first compound 1 µM): 107%

Question: Which IC50 (second compound 0.000949 µM) does the source give for `CC(=O)OC12COC1CC(O)C1(C)C(=O)C(O)C3=C(C)C(OC(=O)C(O)C(NC(=O)OC(C)(C)C)c4ccccc4)CC(O)(C(OC(=O)c4ccccc4)C21)C3(C)C` (stereo unspecified) + CCn1c(-c2cccnc2C(C)OC)c2c3cc(ccc31)N1CCOC(CC(NC(=O)C(C(C)C)N(C)C(=O)C3(F)CCN(C(=O)C#CC(C)(C)N(C)C)CC3)C(=O)N3CCCC(N3)C(=O)OCC(C)(C)C2)C1 here?
Answer: < 31.6 nM

Question: What about the IC50 (second compound 0.003 µM) of the same compound?
Answer: < 31.6 nM

Question: What about the IC50 (second compound 0.00949 µM) of the same compound?
Answer: < 31.6 nM

Question: And the IC50 (second compound 0.03 µM)?
Answer: < 31.6 nM

Question: And the IC50 (second compound 0.0949 µM)?
Answer: < 31.6 nM

Question: And the IC50 (second compound 0.3 µM)?
Answer: > 10000 nM

Question: What about the viability, T/C (second compound 0.000949 µM, first compound 0.0316 µM) of the same compound?
Answer: 35%

Question: And the viability, T/C (second compound 0.000949 µM, first compound 0.1 µM)?
Answer: 39.9%

Question: And the viability, T/C (second compound 0.000949 µM, first compound 0.316 µM)?
Answer: 40.9%

Question: And the viability, T/C (second compound 0.000949 µM, first compound 1 µM)?
Answer: 50.3%

Question: What about the viability, T/C (second compound 0.000949 µM, first compound 3.16 µM) of the same compound?
Answer: 48.3%

Question: What about the viability, T/C (second compound 0.000949 µM, first compound 10 µM) of the same compound?
Answer: 109%

Question: What about the viability, T/C (second compound 0.003 µM, first compound 0.0316 µM) of the same compound?
Answer: 44.6%

Question: And the viability, T/C (second compound 0.003 µM, first compound 0.1 µM)?
Answer: 44.1%

Question: And the viability, T/C (second compound 0.003 µM, first compound 0.316 µM)?
Answer: 42.8%

Question: What about the viability, T/C (second compound 0.003 µM, first compound 1 µM) of the same compound?
Answer: 43.7%

Question: What about the viability, T/C (second compound 0.003 µM, first compound 3.16 µM) of the same compound?
Answer: 57.7%

Question: And the viability, T/C (second compound 0.003 µM, first compound 10 µM)?
Answer: 92%

Question: What about the viability, T/C (second compound 0.00949 µM, first compound 0.0316 µM) of the same compound?
Answer: 54.8%

Question: What about the viability, T/C (second compound 0.00949 µM, first compound 0.1 µM) of the same compound?
Answer: 43.4%

Question: And the viability, T/C (second compound 0.00949 µM, first compound 0.316 µM)?
Answer: 40.3%

Question: And the viability, T/C (second compound 0.00949 µM, first compound 1 µM)?
Answer: 42.8%

Question: What about the viability, T/C (second compound 0.00949 µM, first compound 3.16 µM) of the same compound?
Answer: 63.7%

Question: What about the viability, T/C (second compound 0.00949 µM, first compound 10 µM) of the same compound?
Answer: 84.7%

Question: And the viability, T/C (second compound 0.03 µM, first compound 0.0316 µM)?
Answer: 48.3%

Question: And the viability, T/C (second compound 0.03 µM, first compound 0.1 µM)?
Answer: 39.7%

Question: What about the viability, T/C (second compound 0.03 µM, first compound 0.316 µM) of the same compound?
Answer: 38.4%

Question: What about the viability, T/C (second compound 0.03 µM, first compound 1 µM) of the same compound?
Answer: 52.5%

Question: What about the viability, T/C (second compound 0.03 µM, first compound 3.16 µM) of the same compound?
Answer: 83.4%

Question: And the viability, T/C (second compound 0.03 µM, first compound 10 µM)?
Answer: 94.6%

Question: What about the viability, T/C (second compound 0.0949 µM, first compound 0.0316 µM) of the same compound?
Answer: 48.9%

Question: And the viability, T/C (second compound 0.0949 µM, first compound 0.1 µM)?
Answer: 51.1%

Question: What about the viability, T/C (second compound 0.0949 µM, first compound 0.316 µM) of the same compound?
Answer: 47.5%

Question: And the viability, T/C (second compound 0.0949 µM, first compound 1 µM)?
Answer: 55.4%

Question: And the viability, T/C (second compound 0.0949 µM, first compound 3.16 µM)?
Answer: 88%

Question: What about the viability, T/C (second compound 0.0949 µM, first compound 10 µM) of the same compound?
Answer: 117%

Question: What about the viability, T/C (second compound 0.3 µM, first compound 0.0316 µM) of the same compound?
Answer: 53.8%

Question: And the viability, T/C (second compound 0.3 µM, first compound 0.1 µM)?
Answer: 54.5%

Question: What about the viability, T/C (second compound 0.3 µM, first compound 0.316 µM) of the same compound?
Answer: 53.6%

Question: And the viability, T/C (second compound 0.3 µM, first compound 1 µM)?
Answer: 66.4%

Question: And the viability, T/C (second compound 0.3 µM, first compound 3.16 µM)?
Answer: 85.5%

Question: And the viability, T/C (second compound 0.3 µM, first compound 10 µM)?
Answer: 119%
